Test results published in patent US8933105B2, “Pyrrole compounds” (Takeda Pharmaceutical Company Limited, priority 2007, dated 2015).
Structures can show the parent of a compound that is named as a salt.

What was measured:
HepG2 = experiment: ATP content test (intracellular ATP content, ATPLite); format: cell-based, Human; details: HepG2, 30 μM, culture for one day, relative value to control (without addition of drug)
Experimental: (§1) Human liver cancer-derived cell line HepG2 (ATCC No. HB-8065) was passaged using Dulbecco's Modified Eagle medium (DMEM; Invitrogen) containing 10% fetal bovine serum (FBS; TRACE SCIENTIFIC LTD.), 1 mmol/L sodium pyruvate (Invitrogen), 2 mmol/L L-glutamine (Invitrogen), 50 IU/mL penicillin (Invitrogen) and 50 μg/mL streptomycin (Invitrogen) at 5% CO2, 37° C. The test reagent was prepared with DMSO to 10 mM, and further diluted with DMEM medium containing 0.5% FBS, 1 mmol/L sodium pyruvate, 2 mmol/L L-glutamine, 50 IU/mL penicillin and 50 μg/mL streptomycin to a final concentration of DMSO of 0.1%. HepG2 (2×10^4 cells/well) was cultured on a 96 well white plate (Costar) with the test reagent at 5% CO2, 37° C. After culture for one day, the intracellular ATP content was measured using ATPLite™ (PerkinElmer Life Sciences). The results are shown in Table 26 (n≧3, average value±SD) as a relative value (%) to control (without addition of drug) at 30 μM.

[1] = biological target: T1, proton, potassium-adenosine triphosphatase (H+,K+-ATPase) (Sus scrofa, UniProt P19156); experiment: Proton potassium-adenosine triphosphatase (H+,K+-ATPase) inhibitory activity test; format: biochemical; details: swine gastric microsomal fraction, pH 6.5, 37° C.
T1 construct: a gastric mucous membrane microsomal fraction was prepared from the stomach of swine; from tissue; host or cells: swine stomach, gastric mucous membrane microsomal fraction
Experimental: Proton Potassium-Adenosine Triphosphatase (H^+,K^+-ATPase) Inhibitory Activity Test
According to the method [Biochim. Biophys. Acta, 728, 31 (1983)] of Wallmark et al., a gastric mucous membrane microsomal fraction was prepared from the stomach of swine. First, the stomach was removed, washed with tap water, immersed in 3 mol/L brine, and the surface of the mucous membrane was wiped with a paper towel. The gastric mucous membrane was detached, chopped, and homogenized in a 0.25 mol/L saccharose solution (pH 6.8) containing 1 mmol/L EDTA and 10 mmol/L tris-hydrochloric acid using polytron (Kinematica). The obtained homogenate was centrifuged at 20,000×g for 30 min and the supernatant was centrifuged at 100,000×g for 90 min. The precipitate was suspended in 0.25 mol/L saccharose solution, superimposed on a 0.25 mol/L saccharose solution containing 7.5% Ficoll, and centrifuged at 100,000×g for 5 hr. The fraction containing the interface between the both layers was recovered, and centrifugally washed with 0.25 mol/L saccharose solution.
The obtained microsomal fraction was used as a proton, potassium-adenosine triphosphatase standard product.
To 40 μL of a 50 mmol/L HEPES-tris buffer (5 mmol/L magnesium chloride, 10 mmol/L potassium chloride, 10 μmol/L valinomycin, pH=6.5) containing 2.5 μg/mL (based on the protein concentration) of the enzyme standard product was added a test compound (5 μL) dissolved in a 10% aqueous dimethyl sulfoxide solution, and the mixture was incubated at 37° C. for 30 min. The enzyme reaction was started by adding 5 μL of a 2 mmol/L adenosine triphosphate tris salt solution (50 mmol/L HEPES-tris buffer (5 mmol/L magnesium chloride, pH 6.5)). The enzyme reaction was carried out at 37° C. for 20 min, and 15 μL of a malachite green solution (0.12% malachite green solution in sulfuric acid (2.5 mol/L), 7.5% ammonium molybdate and 11% Tween 20 were mixed at a ratio of 100:25:2) was added to quench the reaction. After allowing to stand at room temperature for 15 min, the resulting reaction product of inorganic phosphorus with malachite green was calorimetrically determined at a wavelength of 610 nm. In addition, the amount of the inorganic phosphoric acid in the reaction solution free of potassium chloride was measured in the same manner, which was subtracted from the inorganic phosphoric acid amount in the presence of potassium chloride to determine the proton, potassium-adenosine triphosphatase activity. The inhibitory rate (%) was determined from the activity value of the control and the activity values of various concentrations of the test compound, and the 50% inhibitory concentration (IC50) of the proton, potassium-adenosine triphosphatase was determined.

Caspase-3/7 = Caspase-3/7 activity test (Caspase-Glo 3/7 Assay); format: cell-based, Human; details: HepG2, 30 μM, culture for one day, relative to maximum with Staurosporine (100%) and no test reagent (0%)
Experimental: as §1
Caspase-3/7 Activity Test
The Caspase-3/7 activity in the cells cultured for one day by a method similar to that in Experimental Example 2 was measured using Caspase-Glo 3/7 Assay (Promega). The results are shown in Table 26 (n≧3, average value±SD) as relative activity (%) of each reagent based on the maximum value of Caspase-3/7 activity when exposed to Staurosporine (100%), and the activity without addition of a test reagent (0%).

T1 sequence (P19156 2-1034 limits assumed): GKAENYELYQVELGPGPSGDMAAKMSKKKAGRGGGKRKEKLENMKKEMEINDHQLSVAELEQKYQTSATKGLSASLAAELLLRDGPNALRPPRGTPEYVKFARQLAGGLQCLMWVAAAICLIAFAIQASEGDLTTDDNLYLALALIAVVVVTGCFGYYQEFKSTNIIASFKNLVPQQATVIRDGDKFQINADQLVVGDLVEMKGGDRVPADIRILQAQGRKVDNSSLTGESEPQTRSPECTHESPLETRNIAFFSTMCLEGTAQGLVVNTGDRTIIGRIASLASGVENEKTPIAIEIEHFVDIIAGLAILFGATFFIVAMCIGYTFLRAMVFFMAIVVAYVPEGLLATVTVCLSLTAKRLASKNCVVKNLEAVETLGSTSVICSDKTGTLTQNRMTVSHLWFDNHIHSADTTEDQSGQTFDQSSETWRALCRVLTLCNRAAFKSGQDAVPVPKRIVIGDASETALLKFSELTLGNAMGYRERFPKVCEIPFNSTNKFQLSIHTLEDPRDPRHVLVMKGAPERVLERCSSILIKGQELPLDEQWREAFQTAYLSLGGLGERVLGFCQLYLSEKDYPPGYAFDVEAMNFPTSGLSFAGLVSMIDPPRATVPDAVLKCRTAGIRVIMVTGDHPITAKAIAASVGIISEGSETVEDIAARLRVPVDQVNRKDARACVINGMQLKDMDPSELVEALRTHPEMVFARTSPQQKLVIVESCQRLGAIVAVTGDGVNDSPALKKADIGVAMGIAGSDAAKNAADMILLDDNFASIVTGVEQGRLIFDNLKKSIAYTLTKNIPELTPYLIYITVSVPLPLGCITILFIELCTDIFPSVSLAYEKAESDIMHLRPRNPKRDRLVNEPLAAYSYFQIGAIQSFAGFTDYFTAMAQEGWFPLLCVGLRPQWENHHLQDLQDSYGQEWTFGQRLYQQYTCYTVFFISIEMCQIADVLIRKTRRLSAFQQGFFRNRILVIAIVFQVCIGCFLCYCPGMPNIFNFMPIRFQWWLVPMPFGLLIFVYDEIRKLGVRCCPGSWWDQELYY
T1 sequence (P18434 whole entry partner): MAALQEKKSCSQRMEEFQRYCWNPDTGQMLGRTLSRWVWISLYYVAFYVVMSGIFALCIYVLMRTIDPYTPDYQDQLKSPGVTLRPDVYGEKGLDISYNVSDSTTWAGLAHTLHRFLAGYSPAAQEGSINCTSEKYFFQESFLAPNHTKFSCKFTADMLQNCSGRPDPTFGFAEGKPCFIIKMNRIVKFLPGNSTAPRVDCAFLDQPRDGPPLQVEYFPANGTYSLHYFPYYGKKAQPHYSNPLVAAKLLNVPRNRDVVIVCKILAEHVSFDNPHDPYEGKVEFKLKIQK

SMILES | ATP content (%, 30 μM) (HepG2) | IC50 [1] | Caspase-3/7 activity (%, 30 μM) (Caspase-3/7)
CNCc1cn(S(=O)(=O)c2ccccc2)c(-c2cccnc2F)c1C.Cl [Example 26, 1-[5-(2-fluoropyridin-3-yl)-4-methyl-1-(phenylsulfonyl)-1H-pyrrol-3-yl]-N-methylmethanamine hydrochloride] | 85.2% | 110 nM | −0.2%
CNCc1cn(S(=O)(=O)c2ccc(CO)o2)c(-c2cccnc2F)c1F [Example 64, [5-({3-fluoro-2-(2-fluoropyridin-3-yl)-4-[(methylamino)methyl]-1H-pyrrol-1-yl}sulfonyl)-2-furyl]methanol 0.5 fumarate] | 102.2% | 190 nM | −0.1%
CNCc1cc(-c2cccnc2C#N)n(S(=O)(=O)c2ccccc2Cl)c1.Cl [Example 99, 3-{1-[(2-chlorophenyl)sulfonyl]-4-[(methylamino)methyl]-1H-pyrrol-2-yl}pyridine-2-carbonitrile hydrochloride] | 82.7% | 270 nM | 0.0%
CNCc1cn(S(=O)(=O)c2cccnc2)c(-c2cccnc2F)c1F.O=C(O)/C=C/C(=O)O [Example 8, 1-[4-fluoro-5-(2-fluoropyridin-3-yl)-1-(pyridin-3-ylsulfonyl)-1H-pyrrol-3-yl]-N-methylmethanamine fumarate] | 103.9% | 90 nM | 0.2%
CNCc1cc(-c2cccnc2F)n(S(=O)(=O)c2ccco2)c1.O=C(O)/C=C/C(=O)O [Example 3, 1-[5-(2-fluoropyridin-3-yl)-1-(2-furylsulfonyl)-1H-pyrrol-3-yl]-N-methylmethanamine fumarate] | 91.4% | 59 nM | −0.5%
CNCc1cn(S(=O)(=O)c2ccccc2)c(-c2cccnc2F)c1F [Example 30, 1-[4-fluoro-5-(2-fluoropyridin-3-yl)-1-(phenylsulfonyl)-1H-pyrrol-3-yl]-N-methylmethanamine 0.5 fumarate] | 97.3% | 26 nM | −0.6%
CNCc1cc(-c2ccc(C)nc2F)n(S(=O)(=O)c2cccnc2)c1.O=C(O)/C=C/C(=O)O [Example 13, 1-[5-(2-fluoro-6-methylpyridin-3-yl)-1-(pyridin-3-ylsulfonyl)-1H-pyrrol-3-yl]-N-methylmethanamine fumarate] | 87.7% | 120 nM | 0.2%
